Remaining activity data for eight compounds are collected here from US8853420B2, “Compounds” (Boehringer Ingelheim International GmbH, priority 2008, dated 2014).

Usually remaining activity stands for the share of the control activity or signal that is left under treatment.

T1 sequence (Q6DE08 60-361): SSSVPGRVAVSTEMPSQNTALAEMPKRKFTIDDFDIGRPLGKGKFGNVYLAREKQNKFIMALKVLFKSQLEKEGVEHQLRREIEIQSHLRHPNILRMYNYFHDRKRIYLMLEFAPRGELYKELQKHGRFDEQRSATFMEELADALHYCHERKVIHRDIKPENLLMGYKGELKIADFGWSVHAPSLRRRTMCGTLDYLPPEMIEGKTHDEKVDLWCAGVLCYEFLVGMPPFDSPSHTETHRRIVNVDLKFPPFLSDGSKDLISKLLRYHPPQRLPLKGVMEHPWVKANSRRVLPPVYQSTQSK
T1 sequence (O13024 790-847 partner limits assumed): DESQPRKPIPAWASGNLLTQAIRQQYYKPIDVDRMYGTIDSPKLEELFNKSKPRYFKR

The assay addresses T1, Xenopus laevis Aurora B/INCENP complex (Xenopus laevis, UniProt Q6DE08).
T1 construct: equipped at the N-terminal position with a GST tag (amino acids 60-361); GST (N, cleaved yes); made in house; host or cells: E. coli BL21 (DE3)
In words: Aurora-B kinase assay (radioactive enzyme inhibition assay). The assay is classed as biochemical. The note with it: test substance at 1 μM; percentage of the positive control (maximum value without test substance).
Consider `O=C(C#Cc1ccc2c(c1)NC(=O)/C2=C(\Nc1ccc(CN2CCCC2)cc1)c1ccccc1)Nc1ccccc1F` [Example 170], for which the remaining activity at 1 µM turned out to be 1.39%.
To `C[C@H](CO)NC(=O)C#Cc1ccc2c(c1)NC(=O)/C2=C(\Nc1ccc(CN(C)C)cc1)c1ccccc1` [Example 171] belongs 3.39%; to `C[C@H](CO)NC(=O)C#Cc1ccc2c(c1)NC(=O)/C2=C(\Nc1ccc(CN2CCCC2)cc1)c1ccccc1` [Example 172], 3.21%; to `O=C(C#Cc1ccc2c(c1)NC(=O)/C2=C(\Nc1ccc(CN2CCCC2)cc1)c1ccccc1)Nc1cccc(Cl)c1` [Example 173], 3.68%.
Take `O=C(C#Cc1ccc2c(c1)NC(=O)/C2=C(\Nc1ccc(CN2CCCC2)cc1)c1ccccc1)Nc1ccccc1` [Example 174]: the remaining activity at 1 µM was determined as 2.67%.
Turning to `CCNC(=O)C#Cc1ccc2c(c1)NC(=O)/C2=C(\Nc1ccc(CN2CCCC2)cc1)c1ccccc1` [Example 175], the remaining activity at 1 µM amounted to 3.04%.
For `CCNC(=O)C#Cc1ccc2c(c1)NC(=O)/C2=C(\Nc1ccc(CN(C)C)c(F)c1)c1ccccc1` [Example 176], the remaining activity at 1 µM is 1.65%.
To `CCNC(=O)C#Cc1ccc2c(c1)NC(=O)/C2=C(\Nc1ccc(CN(C)C)c(Cl)c1)c1ccccc1` [Example 177] belongs 1.83%.
